Measured values published in ChEMBL document CHEMBL3045346, “In vivo evaluation of substituted 2,3-diaryl acrylophenone amide derivatives as anti-implantation agents” (2009).
Activity calls are given as the source filed them. The rule behind the calls is not given here.

The compounds below were run on Rattus norvegicus (assay: Anti-implanatation activity in female Rattus norvegicus Sprague-Dawley (rat) assessed as implantation in uterine horns at 10 mg/kg, po administered on day 1 to 5 post-coitum measured on day 10 of pregnancy by laparotomy).
Type: functional
In the case of `CCCCCCCCCCCCNC(=O)COc1ccc(/C=C(/C(=O)c2ccc(OC)cc2)c2ccc(OC)cc2)cc1`, the Activity is reported as “inactive”.
With `CCCCCCN(CC)C(=O)COc1ccc(/C=C(/C(=O)c2ccc(OC)cc2)c2ccccc2)cc1` the Activity was 33%.
`CCCCCCCCNC(=O)COc1ccc(/C=C(/C(=O)c2ccc(OC)cc2)c2ccc(OC)cc2)cc1` gave an Activity of 100%.
`CCCCCCCCCNC(=O)COc1ccc(/C=C(/C(=O)c2ccc(OC)cc2)c2ccccc2)cc1` was tested, and the Activity was “inactive”.
For `CCCCN(C)C(=O)COc1ccc(/C=C(/C(=O)c2ccc(OC)cc2)c2ccc(OC)cc2)cc1`, the Activity was “inactive”.
With `CCCNC(=O)COc1ccc(/C=C(/C(=O)c2ccc(OC)cc2)c2ccccc2)cc1` the Activity was “inactive”.
With `CCCCNC(=O)COc1ccc(/C=C(/C(=O)c2ccc(OC)cc2)c2ccccc2)cc1` the Activity was “inactive”.
With `CCCCN(C)C(=O)COc1ccc(/C=C(/C(=O)c2ccc(OC)cc2)c2ccccc2)cc1` the Activity was 67%.
Compound `CCCCCCCCNC(=O)COc1ccc(/C=C(/C(=O)c2ccc(OC)cc2)c2ccccc2)cc1` has an Activity of 33%.
Work on `CCCCCCCCCCCCNC(=O)COc1ccc(/C=C(/C(=O)c2ccc(OC)cc2)c2ccccc2)cc1` yielded an Activity of 67%.
`CCCCNC(=O)COc1ccc(/C=C(/C(=O)c2ccc(OC)cc2)c2ccc(OC)cc2)cc1` was tested, and the Activity was 67%.
`COc1ccc2c(c1)OC(C)(C)[C@H](c1ccccc1)[C@H]2c1ccc(OCCN2CCCC2)cc1` (relative stereo) [REL-ORMELOXIFENE] was tested, and the Activity was 100%.
